Article PMC3876937 (Protein expression and purification, 2013)

Target: T1, YGR257Cp (Mtm1p) (Saccharomyces cerevisiae, UniProt P53320)
T1 sequence (P53320 1-366): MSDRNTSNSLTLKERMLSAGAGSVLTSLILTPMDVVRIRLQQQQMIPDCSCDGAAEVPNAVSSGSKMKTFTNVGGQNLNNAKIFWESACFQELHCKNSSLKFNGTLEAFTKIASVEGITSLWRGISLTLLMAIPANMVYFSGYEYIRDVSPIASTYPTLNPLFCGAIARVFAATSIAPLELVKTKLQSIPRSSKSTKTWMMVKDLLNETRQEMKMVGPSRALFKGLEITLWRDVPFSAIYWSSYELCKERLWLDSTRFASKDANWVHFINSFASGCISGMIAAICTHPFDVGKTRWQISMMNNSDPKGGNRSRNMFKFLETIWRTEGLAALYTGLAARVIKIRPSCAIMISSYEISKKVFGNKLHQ
Test: intrinsic tryptophan fluorescence quenching titration
Type: binding

`Cc1ncc(COP(=O)(O)O)c(C=O)c1O` [pyridoxal 5′-phosphate] was tested. Which Kd did it give?
The Kd was 0.7 ± 0.02 µM.
